{
  "source": "patent US20130316006A1",
  "about": "“PARTICLES, COMPOSITIONS AND METHODS FOR OPHTHALMIC AND/OR OTHER APPLICATIONS” (Kala Pharmaceuticals, Inc., priority 2012, published 2013)",
  "key": {"[1]": {"assay": "Chemical stability of LE formulations to 25 kGy gamma irradiation (degradant concentrations)", "type": "physicochemical", "protocol": "Gamma irradiation of a formulation can cause chemical degradation and free radical generation and is a concern especially in aqueous formulations. LE is a soft steroid designed to metabolize via the hydrolytic or enzymatic cleavage of two ester bonds into PJ-91 and PJ-90. […] The concentrations of the degradants were measured immediately after being subjected to gamma irradiation (“Gamma irradiated initial”) and 4 weeks after being subjected to gamma irradiation (“gamma irradiated after 4 weeks”) using a Cobalt 60 gamma irradiation source at a dose of 25 kGy. […] [table]"}, "physchem": {"assay": "physchem", "settings": "25 °C, water"}, "VEGF": {"system": "VEGF", "assay": "Rabbit VEGF-challenge model, leakage by fluorescein angiography", "type": "in vivo, Dutch belted rabbits", "settings": "axitinib-MPP 5%, 50 μL every 4 hours days 1-6; Avastin one intravitreal injection day 1; VEGF day 3; angiography day 6", "from_the_text": "On day 3, the rabbits received an intravitreal injection of VEGF. On day 6, the rabbits were accessed for leakage via fluorescein angiography.\nIn this model, Dutch belted rabbits were given an intravitreal injection of VEGF to stimulate vascular growth. Fluorescein angiography was used to determine the degree to which the rabbits developed abnormal vascular and leakage."}},
  "data": [
    {"compound": "CCOC(=O)O[C@]1(C(=O)OCCl)CC[C@H]2[C@@H]3CCC4=CC(=O)C=C[C@]4(C)[C@H]3[C@@H](O)C[C@@]21C", "note": "[LE, loteprednol etabonate]", "values": [
      {"measurement": "Amount of tetradeca when LE is gamma-irradiated", "setting": "[1]", "result": "above 1%"}
    ]},
    {"compound": "Nc1c(CC(=O)O)cccc1C(=O)c1ccc(Br)cc1", "note": "[bromfenac calcium]", "values": [
      {"measurement": "solubility", "setting": "physchem", "result": "~150", "unit": "µg/mL"}
    ]},
    {"compound": "Avastin®: bevacizumab; positive control, one intravitreal injection", "values": [
      {"measurement": "Vessel growth and vascular leakage after intravitreal VEGF", "setting": "VEGF", "result": "no change in retinal vasculature"}
    ]}
  ]
}
